In patent EP3398599A1, “COMPOSITIONS AND METHODS FOR PROPHYLAXIS AND TREATMENT OF ADDICTIONS” (priority 2009, dated 2010):

Test system: Long Evans rats
Assay: Yohimbine-induced reinstatement of nicotine seeking
Type: in vivo
Conditions: yohimbine 2.0 mg/kg/ml; p<0.001
Method: Stress and anxiety are major factors in resuming nicotine use in former abstinent users. […] Briefly, following acquisition of a stable baseline of IV nicotine self-administration (30µg/0.1ml/infusion), male Long Evans rats (n=8) were subjected to an extinction period of 5 days.
Reinstatement experiments and relative drug treatments were performed every third day. Between reinstatements, extinction baseline was re-established.

## COC(=O)[C@@H]1[C@H]2C[C@H]3c4[nH]c5ccccc5c4CCN3C[C@@H]2CC[C@@H]1O [yohimbine]
  reinstatement of responding (nicotine seeking) compared to extinction: significant reinstatement of responding
